The target of the test is T1, human TPO receptor (hTPOR) (Homo sapiens, UniProt P40238).
T1 construct: expressed in transfected cells; host or cells: BaF-B03 (murine IL-3 dependent cell line)
T1 sequence (P40238 26-635): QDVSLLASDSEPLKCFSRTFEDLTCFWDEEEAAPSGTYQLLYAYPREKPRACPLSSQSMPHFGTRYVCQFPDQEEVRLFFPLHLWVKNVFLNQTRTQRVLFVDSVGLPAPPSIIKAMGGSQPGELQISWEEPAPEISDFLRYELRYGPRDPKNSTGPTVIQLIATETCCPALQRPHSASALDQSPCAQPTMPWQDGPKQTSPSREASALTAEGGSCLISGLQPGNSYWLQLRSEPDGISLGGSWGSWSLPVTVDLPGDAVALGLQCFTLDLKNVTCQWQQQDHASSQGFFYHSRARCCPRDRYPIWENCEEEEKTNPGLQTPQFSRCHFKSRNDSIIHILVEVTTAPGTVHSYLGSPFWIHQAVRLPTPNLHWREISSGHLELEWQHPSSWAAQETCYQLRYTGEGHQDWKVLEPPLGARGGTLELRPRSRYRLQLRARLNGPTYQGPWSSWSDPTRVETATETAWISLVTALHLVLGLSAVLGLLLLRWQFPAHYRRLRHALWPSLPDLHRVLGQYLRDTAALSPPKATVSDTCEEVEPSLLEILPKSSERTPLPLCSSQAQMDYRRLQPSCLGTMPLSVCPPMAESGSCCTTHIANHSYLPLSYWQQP
The experiment in a line: Thrombopoietic activity: proliferation of TPO dependent BaF/hTPOR cells (WST-1, absorbance at 450 nm). Format: cell-based. As to conditions: 20 h + 4 h WST-1, ED50 = half concentration of the concentration showing the maximum thrombopoietic activity. An outline of the steps: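 Proliferation read-out: WST-1 absorbance at 450 nm after 20 h compound exposure plus 4 h reagent, using IL-3-deprived BaF/hTPOR cells (5×10^4 per well) dependent on human TPO receptor signalling. ED50 defined as half the concentration producing maximal activity.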
On the technique in general: Formazan colour is commonly taken as a measure of viable cells.

Molecules are shown by their SMILES.

A word on the EC50: it is the midpoint of the concentration-response curve.

For `CCCOCCCC(OC)c1cccc(-c2csc(NC(=O)c3cc(F)c(/C=C(\C)C(=O)O)c(F)c3)n2)c1OC` (centres unmarked) [Compound B1799, (E)-3-(2,6-difluoro-4-{4-[2-methyloxy-3-(1-methyloxy-4-propyloxybutyl)phenyl]thiazol-2-ylcarbamoyl}phenyl)-2-methylacrylic acid], the EC50 (Table 1) stood at 17.3 nM.
As for `COc1c(COCC(C)(C)C)cccc1-c1csc(NC(=O)c2cc(Cl)c(/C=C(\C)C(=O)O)c(Cl)c2)n1` [Compound B2021, (E)-3-(2,6-dichloro-4-{4-[3-(2,2-dimethylpropyloxymethyl)-2-methyloxyphenyl]thiazol-2-ylcarbamoyl}phenyl)-2-methylacrylic acid], for the setting “Table 1”, the EC50 was determined as 6.09 nM.
On to `CCCCCOCc1cccc(-c2csc(NC(=O)c3cc(Cl)c(/C=C(\C)C(=O)O)c(Cl)c3)n2)c1OC` [Compound B1886], for which the EC50 (Table 2) is 22.1 nM.
Take `CCCCCCOCc1cccc(-c2csc(NC(=O)c3cc(Cl)c(/C=C(\OC)C(=O)O)c(Cl)c3)n2)c1OC` [Compound B1994, (Z)-3-{2,6-dichloro-4-[4-(3-hexyloxymethyl-2-methyloxyphenyl)thiazol-2-ylcarbamoyl]phenyl}-2-methyloxyacrylic acid]: the EC50 (Table 1) is 14.2 nM.
Regarding `CCCOCCCc1cccc(-c2nc(NC(=O)c3cc(Cl)c(/C=C(\C)C(=O)O)c(Cl)c3)sc2OC)c1` [Compound B1863, (E)-3-(2,6-dichloro-4-{5-methyloxy-4-[3-(3-propyloxypropyl)phenyl]thiazol-2-ylcarbamoyl}phenyl)-2-methylacrylic acid], the concentration giving a half-maximal response (EC50) (Table 2) came out at 22.8 nM.
Consider `CCCCCCCCCCC(OC)c1cccc(-c2csc(NC(=O)c3cc(Cl)c(C=C(C)C(=O)O)c(Cl)c3)n2)c1F` (centres unmarked) [Compound B91, 3-(2,6-dichloro-4-{4-[2-fluoro-3-(1-methyloxyundecyl)phenyl]thiazol-2-ylcarbamoyl)phenyl]-2-methylacrylic acid], for which the EC50 (Table 1) is 1.02 nM.
On the same count and under the same terms, next, `CCCCCCCCCCC(OC)c1cccc(-c2csc(NC(=O)c3cc(F)c(C=C(C)C(=O)O)c(F)c3)n2)c1F` (centres unmarked) [Compound B47, 3-(2,6-difluoro-4-{4-[2-fluoro-3-(1-methyloxyundecyl)phenyl]thiazol-2-ylcarbamoyl}phenyl)-2-methylacrylic acid]: 2.8 nM.
Consider `CCCCOCCCc1cccc2c1CCc1sc(NC(=O)c3cc(Cl)c(C=C(C)C(=O)O)c(Cl)c3)nc1-2` [Compound A11, 3-{4-[6-(3-n-butyloxypropyl)-4,5-dihydronaphtho[1,2-d]thiazol-2-ylcabamoyl]-2,6-dichlorophenyl}-2-methylacrylic acid], for which, under “Table 1”, the EC50 was 0.87 nM.
For `CCCCCCOCCCc1cccc(-c2csc(NC(=O)c3cc(F)c(C=C(C)C(=O)O)c(F)c3)n2)c1F` [Compound B46, 3-(2,6-difluoro-4-{4-[2-fluoro-3-(3-n-hexyloxypropyl)phenyl]thiazol-2-ylcarbamoyl}phenyl)-2-methylacrylic acid], the EC50 (Table 1) turned out to be 1.28 nM.
For the molecule `CCCCCCCCCC(OC)c1cccc(-c2csc(NC(=O)c3cc(F)c(C=C(C)C(=O)O)c(F)c3)n2)c1F` (centres unmarked) [Compound B9, 3-(2,6-difluoro-4-{4-[2-fluoro-3-(1-methyloxydecyl)phenyl]thiazol-2-ylcarbamoyl}phenyl)-2-methylacrylic acid], under “Table 1”, the EC50 was found to be 1.6 nM.
Same read-out and setting: the same measure for `CCC(CC)COCCc1cccc(-c2csc(NC(=O)c3cc(Cl)c(/C=C(\OC)C(=O)O)c(Cl)c3)n2)c1OC` [Compound B1960, (Z)-3-[2,6-dicholoro-4-(4-{3-[2-(2-ethylbutyloxy)ethyl]-2-methyloxyphenyl}thiazol-2-ylcarbamoyl)phenyl]-2-methyloxyacrylic acid]: 10.1 nM.
In the case of `CCCCOC(C)c1cccc(-c2csc(NC(=O)c3cc(Cl)c(C=C(C)C(=O)O)c(Cl)c3)n2)c1F` (centres unmarked) [Compound B98, 3-(4-{4-[3-(1-n-butyloxyethyl)-2-fluorophenyl]thiazol-2-ylcarbamoyl)-2,6-dichlorophenyl]-2-methylacrylic acid], the EC50 (Table 1) is 0.73 nM.
Same read-out and setting: next, `CCCCOCCCc1cccc(-c2csc(NC(=O)c3cc(F)c(/C=C(\C)C(=O)O)c(F)c3)n2)c1OC` [Compound B419, (E)-3-(4-{4-[3-(3-butyloxypropyl)-2-methyloxyphenyl]thiazol-2-ylcarbamoyl}-2,6-difluorophenyl)-2-methylacrylic acid]: 14.6 nM; `CCCOC(CCC)c1cccc(-c2csc(NC(=O)c3cc(Cl)c(C=C(C)C(=O)O)c(Cl)c3)n2)c1F` (centres unmarked) [Compound B78, 3-(2,6-dichloro-4-{4-[2-fluoro-3-(1-n-propyloxybutyl)phenyl]thiazol-2-ylcarbamoyl}phenyl)-2-methylacrylic acid]: 0.97 nM.
As for `CCC(CC)COCCCc1cccc(-c2csc(NC(=O)c3cc(F)c(/C=C(\C)C(=O)O)c(F)c3)n2)c1OC` [Compound B1848, (E)-3-[4-(4-{3-[3-(2-ethylbutyloxy)propyl]-2-methyloxyphenyl}thiazol-2-ylcarbamoyl)-2,6-difluorophenyl]-2-methylacrylic acid], the EC50 (Table 1) was found to be 15.9 nM.
Still for that read-out and setting: next, `CCCCCCOC(C)c1cccc(-c2csc(NC(=O)c3cc(Cl)c(C=C(C)C(=O)O)c(Cl)c3)n2)c1F` (centres unmarked) [Compound B99, 3-(2,6-dichloro-4-{4-[2-fluoro-3-(1-n-hexyloxyethyl)phenyl]thiazol-2-ylcarbamoyl)phenyl]-2-methylacrylic acid]: 0.59 nM; `CCCCOC(CC)c1cccc(-c2csc(NC(=O)c3cc(F)c(C=C(C)C(=O)O)c(F)c3)n2)c1F` (centres unmarked) [Compound B37, 3-(4-{4-[3-(1-n-butyloxypropyl)-2-fluorophenyl]thiazol-2-ylcarbamoyl}-2,6-difluorophenyl)-2-methylacrylic acid]: 0.88 nM; `CCCCCC(OC)c1cccc(-c2csc(NC(=O)c3cc(F)c(C=C(C)C(=O)O)c(F)c3)n2)c1F` (centres unmarked) [Compound B1, 3-(2,6-difluoro-4-{4-[2-fluoro-3-(1-methyloxyhexyl)phenyl]thiazol-2-ylcarbamoyl}phenyl)-2-methylacrylic acid]: 2.2 nM.
Take `CCCCCOC(c1cccc(-c2csc(NC(=O)c3cc(F)c(/C=C(\C)C(=O)O)c(F)c3)n2)c1OC)C1CCCCC1` (centres unmarked) [Compound B484]: the EC50 (Table 1) was determined as 1.29 nM.
Same read-out and setting: the same measure for `CCCCCCOCc1cccc(-c2csc(NC(=O)c3cc(Cl)c(/C=C(\C)C(=O)O)c(Cl)c3)n2)c1OC` [Compound B1993, (E)-3-{2,6-dichloro-4-[4-(3-hexyloxymethyl-2-methyloxyphenyl)thiazol-2-ylcarbamoyl]phenyl}-2-methylacrylic acid]: 13.9 nM; for `CCCCCOC(CCC)c1cccc(-c2csc(NC(=O)c3cc(F)c(C=C(C)C(=O)O)c(F)c3)n2)c1F` (centres unmarked) [Compound B36, 3-(2,6-difluoro-4-{4-[2-fluoro-3-(1-n-pentyloxybutyl)phenyl]thiazol-2-ylcarbamoyl}phenyl)-2-methylacrylic acid]: 0.63 nM.
Same read-out and setting: the same measure for `CCCCOCCCC(OCCCC)c1cccc(-c2csc(NC(=O)c3cc(Cl)c(C=C(C)C(=O)O)c(Cl)c3)n2)c1F` (centres unmarked) [Compound B100, 3-(4-{4-[3-(1,4-dibutyloxybutyl)-2-fluorophenyl]thiazol-2-ylcarbamoyl)-2,6-dichlorophenyl]-2-methylacrylic acid]: 0.68 nM; for `CCCCCCCC(OC)c1cccc(-c2csc(NC(=O)c3cc(F)c(C=C(C)C(=O)O)c(F)c3)n2)c1F` (centres unmarked) [Compound B25, 3-(2,6-difluoro-4-{4-[2-fluoro-3-(1-methyloxyoctyl)phenyl]thiazol-2-ylcarbamoyl}phenyl)-2-methylacrylic acid]: 0.93 nM.

The record behind these values is patent publication US7601746B2 (Shionogi & Co., Ltd., priority 2003, dated 2009).
